# Experimental data taken from patent publication US20220220472A1, “TARGETED THERAPY” (The Regents of the University of Michigan, priority 2019, published 2022).
# Tests used:
# [1] = system: HCT116 cells; assay: Clonogenic survival of HCT116 cells with Dox-inducible dCas9-Fok1-GFP and gRNA pairs; assay type: cell-based; details: Nu7441 200 nM, 12 days, no gRNA
# Protocol: Cells were plated and treated with different concentrations of Dox for 12 days. Cells were then fixed and stained, colonies were counted, and colony numbers were reported as a percentage of control cells not treated with Dox. […] Cells were plated and treated with different concentrations of Dox for 12 days. Cells were then fixed and stained and colonies counted and expressed as a percentage of control cells not treated with Dox. In FIG. 5A and FIG. 5B, the gRNA pairs target two CRJs on chromosome 3 (3ab and 3cd), one on chromosome 5 (5ab), and one on the X chromosome (xab).
# During the development of embodiments of the technology provided herein, experiments were conducted to evaluate use of a dCas9-Fok1 fusion protein and to produce a dCas9-Fok1 fusion protein further comprising a GFP domain to provide a tool to detect expression in cells. Furthermore, the dCas9-Fok1-GFP fusion and the gRNA genes were placed under the regulation of a tet-inducible promoter for performing experiments to establish the cells in culture or as xenografts and then induce expression by addition of doxycycline (Dox). […]
# HCT116 cells with stable expression of dCas9-Fok1-GFP, 3ab3cd/Fok1-dcas9-GFP, 5ab3cd/Fok1-GFP, and 3abxab/dCas9-GFP were maintained in DMEM containing 10% FBS. […] Clonogenic survival colonies with 50 cells or more were counted.
# [2] = system: UMUC-3 bladder cancer cells; assay: Clonogenic survival assay in UMUC-3 bladder cancer cells; assay type: cell-based, human; details: doxycycline induction plus Nu7441
# Excerpt: FIG. 6C is a series of bar plots showing data collected from an […] clonogenic survival assay in the UMUC-3 bladder cells shown schematically in FIG. 6B. […] Further, treatments with the DNA-PK inhibitor Nu7441 improved the toxicity of the CRJ-targeting gRNAs (bottom row). The data are expressed as the mean and standard deviation of three biological replicates. Numbers (3a & X; 7 & 2; 7 & 4; 19 & 2; and 19 & 4) indicate the combinations of gRNA used for the experiment.
# First, CRJs were identified in bladder cancer cells (see, e.g., FIG. 6A). Using sequence information from the CRJs identified in bladder cancer cells, gRNA were designed and UMUC-3 (ATCC Accession CRL-1749) cell lines were produced comprising doxycycline-inducible expression of Fok1-dCas9 and the CRJ-targeting gRNAs. gRNA sequences are provided in Table 2.
# Six UMUC-3 bladder cancer sublines were generated—Two control cell lines were produced, one expressing no gRNAs and one expressing 2 pairs of non-targeting gRNAs; four experimental cell lines were produced expressing Fok1-dCas9-GFP and two pairs of CRJ-targeting gRNAs under the regulation of doxycycline (see, e.g., FIG. 6B). CRJ-specific DSBs were induced in the cells (e.g., using doxycycline) and toxicity was monitored to determine if interfering with DSB repair leads to increased killing of bladder cancer cells (see, e.g., FIG. 6C, top row). […]
# [3] = system: HCT116 xenografts; assay: HCT116 xenograft tumor growth in mice; assay type: in vivo; details: water with Dox and Nu7441
# Protocol: In these experiments, HCT116 cells are injected into mice and each group is split into three treatment groups that receive ether regular water, water with Dox, or water with Dox and Nu7441.
# Experiments are conducted in which three of the HCT116 cell lines with dox-inducible expression of dCas9-Fok1-GFP with and without CRJ-targeting gRNAs are used to form xenografts in the flank of mice. In these experiments, one million HCT116 cells in a 100 μl Matrigel suspension are injected s.c. into the hind leg of the mice (a total of 54 NOD/SCID or athymic BALB/C, 10-12 weeks old). When tumors reach sizes of 50-150 mm^3, each group is split into three groups (see, e.g., FIG. 2) where they receive ether regular water, water with Dox, or water with Dox and Nu7441. Tumor measurements are taken daily and mouse weights are recorded 3 times weekly. As the control tumors reach the predetermined tumor size limit, animals are euthanized. At this time, the tumors are removed, weighed, and documented (e.g., using digital imaging) and used for downstream analyses. Downstream analyses include measuring expression of dCas9-Fok1-GFP (green fluorescence) and γH2AX ChIP-PCR with primers for sequences near the CRJ and sequences far away as a control.
# [4] = system: UMUC-3 orthotopic tumors; assay: UMUC-3 orthotopic xenograft tumor growth in NOD-scid mice; assay type: in vivo; details: UMUC-3 in NODscid mice; doxycycline plus Nu7441
# Protocol: FIG. 7 is a schematic drawing showing an in vivo experiment comparing tumor growth between UMUC-3 cells expressing non-targeting gRNAs (left) and UMUC-3 cells expressing CRJ-targeting gRNAs (right). These cell lines are engineered to express luciferase for bioluminescent monitoring. Each mouse group represents 10 NODscid mice. […] Accordingly, further experiments are conducted to grow these cell lines as orthotopic xenografts in NOD-scid mice and to monitor tumor growth (e.g., using bioluminescence) in vivo as the CRISPR reagents are induced by doxycycline (e.g., provided in food and/or water). UMUC-3 cells are grown as orthotopic tumors in NOD-scid mice, animals are given doxycycline to induce Fok1-dCas9 and the two pairs of gRNAs in the cancer cells, and the effects on tumor growth are assessed by bioluminescence. […] The other cell line expresses CRJ-targeting gRNAs following doxycycline exposure. Experiments are conducted with or without a DNA-PK inhibitor (e.g., Nu7441) and with and without doxycycline in the drinking water and/or in the food. 10 animals are used per group with 8 groups for a total of 80 animals (FIG. 7).
compound,measurement,setting,value
O=c1cc(N2CCOCC2)oc2c(-c3cccc4c3sc3ccccc34)cccc12 [Nu7441],effect of Nu7441 on clonogenicity of cells expressing dCas9-Fok1-GFP alone,[1],did not affect clonogenicity
same,toxicity / survival with DNA-PK inhibitor Nu7441,[2],augmented this effect
same,suppression of tumor growth with Nu7441,[3],Suppression of tumor growth is augmented
same,tumor growth inhibition with Nu7441,[4],augments tumor growth inhibition
